Test [1] relates to 60 cancer cell lines of different tissues of origin. In words: Non-bias 5x4 checkerboard combination screen of TAS108 with 30 chemotherapeutic agents. The format is cell-based. Set-up: ES: synergistic effect size: scale not given here. As to conditions: for ES: synergistic effect size: in combination with TAS-108, meta analysis across doses and 60 cell lines; for synergy with TAS-108 across the cell line panel (in words): in combination with TAS-108. The source says: We used 5×4 factorial (checkerboard) design. The combinations were screened against 60 cancer cell lines of different tissues of origin, including melanoma, ovarian, CNS, renal, lung, breast, colon, prostate, and leukemia cancers, represented by cell lines including LOXIMVI, M14,MDAMB468, HT29, NCIH522, HS578T, RPMI8226, HOP92, HL60, OVCAR8, SR, SKMEL2, PC3, HOP62, HCC2998,786O, U251, OVCAR3, NCIH23, T47D, SF295, MOLT4, HCT15, SF539, BT549, SN12C, KM12, ADRRES, A498, NCIH226, NCIH322M, OVCAR5, MALME, OVCAR4, RXF393, SW620, CCRFCEM, UACC62, ACHN, SKOV3, SF268, EKVX, A549, NCIH460, IGROV1, SNB75, UACC257, UO31, HCT116, TK10, K562, SKMEL28, COLO205, SNB19, MDAMB231, DU145, CAKI1, MDAMB435, and MCF7.
After quantifying the degree of synergy for specified doses of compounds within each individual cell line, we used meta analysis to aggregate those effects across doses and the cell line panel (Table 1).

For test [2], the system named is BT549. In words: CellTiter-Glo cell viability assay, single agents, three days. In kind it is cell-based. Particulars: Homo sapiens, BT-549, 72 h; for Emax: read-out: Max Inhibition; for GI50: BT549, three days, CellTiter-Glo. For orientation: ATP-based viability assays read luminescence as a measure of living cells.
Test [3] has as its system HS578T. The description is as above. In kind it is cell-based. Particulars: Homo sapiens, Hs-578T, 72 h; for Emax: read-out: Max Inhibition.
Test [4] concerns MDAMB231. Described as above. In kind it is cell-based. As to conditions: Homo sapiens, MDA-MB-231, 72 h; for Emax: read-out: Max Inhibition; for GI50: MDAMB231, three days, CellTiter-Glo.
The subject of test [5] is MDAMB468. The test is described as above. In kind it is cell-based. Particulars: Homo sapiens, MDA-MB-468, 72 h; for Emax: read-out: Max Inhibition; for GI50: MDAMB468, three days, CellTiter-Glo.
For test [6], the system named is T47D. The description is as above. In kind it is cell-based. Particulars: Homo sapiens, 72 h; for Emax: read-out: Max Inhibition.
Test [7] concerns MCF7. The test is described as above. As to conditions: Homo sapiens; for Emax: read-out: Max Inhibition. The format is cell-based.
For test [8], the system named is HS 578T. In words: Combination screen of TAS-108 with a second compound, CellTiter-Glo. As to conditions: in combination with TAS-108.
Description: (§1) Cells were treated with compounds alone or in combination for three days and CellTiter-Glo® Luminescent Cell Viability Assay (Promega Corp.) was used as the endpoint to measure cell viability.
(§2) Cells were cultured in RPMI with 10% fetal bovine serum and used between passage 2 and passage 20.
(§3) Other compounds used were purchased from commercial sources (Sigma, AK Scientific). 40 mM Compound stocks in 100% DMSO were made. Master plates were made with Janus (PerkinElmer), then further diluted and added to the cell plates with Matrix Platemate (Thermo) on Day 0.
(§4) CellTiter-Glo® Luminescent Cell Viability Assay (Promega Corp.) was used to measure ATP as an indicator of viable cells on Day 3 using Envision (PerkinElmer) and back up plate reader Analyst HT (MDS) and Gen5 (BioTek).
(§5) Relative Luminescent Units (RLU) were plotted against corresponding drug concentrations and fitted with a standard four parameter sigmoidal curve with custom coded R program. Percentage growth inhibition is calculated as: [(Ti−Tz)/(C−Tz)]×100 for concentrations for which Ti≧Tz and [(Ti−Tz)/Tz]×100 for concentrations for which Ti<Tz.
(§6) Twenty-five doses were tested for each pair of combinations.
(§7) N: no synergistic effect; Y: synergistic effect; y: weak synergistic effect.
Test [9] has as its system human mammary carcinoma cell lines. Put plainly: Combination screen of TAS-108 with a second compound, all six breast lines. As to conditions: number of the six breast cell lines with synergy, in combination with TAS-108.
Description: as §1, §2, §3, §4, §5, §6, §7
[10] abbreviates: HS578T, three days, CellTiter-Glo, read-out: GI50.
[11] abbreviates: three days, CellTiter-Glo, read-out: GI50.
The mark [12] stands for this setting: 72 h, MCF7, highest dose tested.
The mark [13] stands for this setting: 72 h, MCF7, three days, CellTiter-Glo, read-out: GI50.

These results are taken from patent US20130231292A1, “Synergistic anti-proliferation activity of TAS-108 with mTOR inhibitors against cancer cells” (priority 2012, published 2013).

The GI50 is the concentration that inhibits growth by half.

“Also recorded” adds a separate entry of the source. Read-outs that look alike come from different tables or passages of the source.

Regarding `CCCCCOC(=O)Nc1nc(=O)n([C@@H]2O[C@H](C)[C@@H](O)[C@H]2O)cc1F` [Capecitabine], the “ES: synergistic effect size” value in test [1] is listed as −0.001.

Take `N.N.O=C([O-])C1(C(=O)[O-])CCC1.[Pt+2]` [Carboplatin]: in test [1], the “ES: synergistic effect size” value is −0.004.

On to `Nc1ccn([C@@H]2O[C@H](CO)[C@@H](O)[C@@H]2O)c(=O)n1` [Cytarabine], for which the “ES: synergistic effect size” value in [1] is given as −0.008.

Turning to `Cc1nc(Nc2ncc(C(=O)Nc3c(C)cccc3Cl)s2)cc(N2CCN(CCO)CC2)n1` [Dasatinib], the Emax in [2] (BT549, highest dose tested) is 51%; in [3] (HS578T, highest dose tested) it was 79%; in [4] (MDAMB231, highest dose tested), 82%; in test [5] (MDAMB468, highest dose tested) it was 40%; in [6] (highest dose tested), 37%. Further, the 50% growth inhibitory concentration (GI50) was determined as 58 nM in [2]; 15 nM in test [3] (setting [10]); 9.9 nM in [4]; 16000 nM in test [5]; 860 nM in test [6] (setting [11]).

For the compound `CC(=O)O[C@@]12CO[C@@H]1C[C@H](O)[C@@]1(C)C(=O)[C@H](O)C3=C(C)[C@@H](OC(=O)[C@H](O)[C@@H](NC(=O)OC(C)(C)C)c4ccccc4)C[C@@](O)([C@@H](OC(=O)c4ccccc4)[C@H]21)C3(C)C` [Docetaxel], in test [1], the “synergy with TAS-108 across the cell line panel (in words)” value is “synergy was consistently found; also recorded: significant synergy” and the “ES: synergistic effect size” value is recorded as 0.23.

Consider `C#Cc1cccc(Nc2ncnc3cc(OCCOC)c(OCCOC)cc23)c1` [Erlotinib], for which, in test [5] (MDAMB468, highest dose tested), the Emax was 34%. In test [5], the GI50 is 76000 nM.

Turning to `CO[C@H]1C[C@@H]2CC[C@@H](C)[C@@](O)(O2)C(=O)C(=O)N2CCCC[C@H]2C(=O)O[C@H]([C@H](C)C[C@@H]2CC[C@@H](OCCO)[C@H](OC)C2)CC(=O)[C@H](C)/C=C(\C)[C@@H](O)[C@@H](OC)C(=O)[C@H](C)C[C@H](C)/C=C/C=C/C=C/1C` [Everolimus], the Emax is 100% in test [2] (BT549, highest dose tested); 41% in [3] (HS578T, highest dose tested); 43% in test [7] (setting [12]); 40% in test [4] (MDAMB231, highest dose tested); 100% in test [5] (MDAMB468, highest dose tested); 49% in test [6] (highest dose tested). Besides, the GI50 in test [2] was determined as 5800 nM; in [3] (setting [10]), 63 nM; in [7] (setting [13]), 170 nM; in test [4] it was 54000 nM; in [5], 63 nM; in [6] (setting [11]) it was 52 nM. In test [1], the “synergy with TAS-108 across the cell line panel (in words)” value is reported as “synergy was consistently found; also recorded: significant synergy”. The “ES: synergistic effect size” value in test [1] amounted to 0.037. Moreover, in test [8], the “Synergistic effect of TAS 108 paired with compound” value is “Y”. For the same compound, the “Synergy #” value in test [9] amounted to 6.

For `C[C@]12CC[C@@H]3c4ccc(O)cc4C[C@@H](CCCCCCCCC[S+]([O-])CCCC(F)(F)C(F)(F)F)[C@H]3[C@@H]1CC[C@@H]2O` (stereo partly shown) [Faslodex], the Emax in [7] (setting [12]) was determined as 30%; in test [6] (highest dose tested), 24%. The GI50 in [7] (setting [13]) was determined as 1000 nM.

As to `O=c1[nH]c(=O)n([C@H]2C[C@H](O)[C@@H](CO)O2)cc1F` [Floxuridine], the “ES: synergistic effect size” value in [1] was −0.016.

As for `Nc1nc(F)nc2c1ncn2[C@@H]1O[C@H](CO)[C@@H](O)[C@@H]1O` [FluroaraA], the “ES: synergistic effect size” value in [1] was 0.008.

On to `Nc1ccn([C@@H]2O[C@H](CO)[C@@H](O)C2(F)F)c(=O)n1` [Gemcitabine], for which, in test [1], the “ES: synergistic effect size” value is on record as −0.007.

`Cc1ccc(NC(=O)c2ccc(CN3CCN(C)CC3)cc2)cc1Nc1nccc(-c2cccnc2)n1` [Imatinib]: the GI50 came out at 29000 nM in test [2] and 26000 nM in test [4]. Further, the Emax in test [4] (MDAMB231, highest dose tested) was determined as 91%.

As to `CS(=O)(=O)CCNCc1ccc(-c2ccc3ncnc(Nc4ccc(OCc5cccc(F)c5)c(Cl)c4)c3c2)o1` [Lapatinib], the Emax in test [4] (MDAMB231, highest dose tested) amounted to 98%; in test [5] (MDAMB468, highest dose tested), 99%; in [6] (highest dose tested), 31%. The GI50 turned out to be 14000 nM in test [4], 1900 nM in test [5] and 5800 nM in test [6] (setting [11]).

On to `Cc1cn(-c2cc(NC(=O)c3ccc(C)c(Nc4nccc(-c5cccnc5)n4)c3)cc(C(F)(F)F)c2)cn1` [Nilotinib], for which growth in test [4] was halved (GI50) at 14000 nM.

For `O=C(c1ccc(OCCN2CCCCC2)cc1)c1c(-c2ccc(O)cc2)sc2cc(O)ccc12` [Raloxifene], in test [7] (setting [12]), the Emax turned out to be 27%. Also, the GI50 in test [7] (setting [13]) was found to be 25000 nM.

As to `CO[C@H]1C[C@@H]2CC[C@@H](C)[C@@](O)(O2)C(=O)C(=O)N2CCCC[C@H]2C(=O)O[C@H]([C@H](C)C[C@@H]2CC[C@@H](O)[C@H](OC)C2)CC(=O)[C@H](C)/C=C(\C)[C@@H](O)[C@@H](OC)C(=O)[C@H](C)C[C@H](C)/C=C/C=C/C=C/1C` [Rapamycin], the Emax worked out at 99% in test [2] (BT549, highest dose tested); 41% in test [3] (HS578T, highest dose tested); 55% in test [7] (setting [12]); 95% in test [4] (MDAMB231, highest dose tested); 100% in test [5] (MDAMB468, highest dose tested); 45% in test [6] (highest dose tested). Moreover, the GI50 in test [2] is 220 nM; in test [3] (setting [10]) it was 1000 nM; in [7] (setting [13]) it was 54 nM; in test [4] it was 11000 nM; in test [5] it was 63 nM; in test [6] (setting [11]), 47 nM.

As to `C/C=C1\NC(=O)[C@H]2CSSCC/C=C/[C@H](CC(=O)N[C@H](C(C)C)C(=O)N2)OC(=O)[C@H](C(C)C)NC1=O` [Romidepsin], the Emax in test [2] amounted to 99.8%; in [3], 99.6%; in [7] (MCF7, 72 h), 94%; in test [4], 99.9%; in test [5], 99.8%; in [6] it was 96.7%. Moreover, the GI50 was 0.3 nM in [3]; 0.44 nM in [7] (MCF7, 72 h); 1.1 nM in test [6].

On to `CCc1c2c(nc3ccc(O)cc13)-c1cc3c(c(=O)n1C2)COC(=O)[C@]3(O)CC` [SN38], for which the “ES: synergistic effect size” value in test [1] amounted to 0.022.

For the compound `CCN(CC)CCNC(=O)c1c(C)[nH]c(/C=C2\C(=O)Nc3ccc(F)cc32)c1C` [Sunitinib], the Emax in [2] (BT549, highest dose tested) was 100%; in test [3] (HS578T, highest dose tested) it was 65%; in test [4] (MDAMB231, highest dose tested), 99%. The GI50 in test [2] was found to be 4200 nM; in test [3] (setting [10]), 6900 nM; in [4] it was 5600 nM; in [5], 21000 nM.

With `CC[C@]1(O)C[C@H]2CN(CCc3c([nH]c4ccccc34)[C@@](C(=O)OC)(c3cc4c(cc3OC)N(C=O)[C@H]3[C@@](O)(C(=O)OC)[C@H](OC(C)=O)[C@]5(CC)C=CCN6CC[C@]43[C@@H]65)C2)C1` [Vincristine], the “ES: synergistic effect size” value in test [1] was found to be 0.023.

Consider `O=C(CCCCCCC(=O)Nc1ccccc1)NO` [Vorinostat], for which, in [1], the “ES: synergistic effect size” value stood at 0.004.
